Read-outs that look alike come from different tables or passages of the source.
Key:
[1] = Clinical plasma PK in healthy volunteers after oral dosing (observed); format: in vivo; conditions: male, human; for AUC(0-t): read-out: AUC0-t Observed; for AUC(0-inf): read-out: AUC0-∞ Observed; for MRT inf: read-out: MRT(0-∞) Observed
Method: The study protocol was approved by the Ethics Committee of Peking Union Medical College Hospital approved (Permission Number: 09103), and the Informed Consent Form was signed by all subjects before the study. PVP formulation of buagafuran was packed into capsules for oral administration. In a study of open-label, randomized, cross-over and dose-ranging design, 12 healthy male Chinese volunteers (aged 22–40 with weighing 55–70 kg) received a single oral dose of buagafuran (30, 60, and 120 mg). Serial blood samples were collected up to 48 h. In a phase I, randomized and multiple oral dose study, 5 healthy male Chinese volunteers (aged 20–31 with weighing 55–73 kg) received once-daily oral dose of 60 mg buagafuran for 7 days. On day 1 and 7, plasma samples were collected at the designed time points. Detailed clinical data was previously reported ([Yang et al., 2011], [2013]).
Pharmacokinetic parameters were determined with a non-compartmental model using WinNonlin v 6.0 (Pharsight Corporation, Mountain View, CA, United States). The area under the compound concentration versus time curve from time zero to the last time point (AUC0-t) and extrapolated to infinity (AUC0-∞) and the peak plasma concentration (Cmax) were calculated.

[2] = Brain concentrations in the rat after oral dosing (observed); format: in vivo, male Wistar rats; conditions: oral 4 mg/kg
Excerpt: Animal Care and Welfare Committee of Institute of Materia Medica, Chinese Academy of Medical Sciences approved all animal protocols (1 Xian nong tan Street, Xicheng District, Beijing, China; Permission Number: SYXK 2014-0023, Expiration: 06 Aug, 2019). All animal programs are in compliance with the Guide for the Care and Use of Laboratory Animals issued by Beijing Association on Laboratory Animal Care (BALAC). Buagafuran formulation of PVP was suspended in deionized water and was orally administered at 4 or 8 mg/kg to male Wistar rats (weighing 180–200 g). Brain samples treated with the dose of 4 mg/kg and blood samples of both treatments were collected over 3 h. Plasma samples were obtained by centrifugation, and brain tissues were homogenized in a threefold volume (w/v) of saline. Buagafuran concentrations in plasma and brain samples were quantitated by an LC-MS/MS method ([Yang et al., 2011]).
A volume of 200 μL plasma or tissue homogenate was mixed with 100 μL IS (10 ng/mL) followed by addition of 2 mL hexane. After vortexing for 2 min, the mixture was centrifuged for 5 min at 3000 g. The extracted solution was combined and evaporated to dryness at 25°C. […] The outlet of the column was detected in positive ionization electrospray mode with selected reaction monitoring. The monitored transitions of buagafuran and IS were m/z 245→105 and 500→142, respectively. […]

[3] = Biopharmaceutical classification system (BCS); format: physicochemical
CYP3A and CYP2E = test system: CYP3A and CYP2E; parameters: method as in Zhang, 1997; Li et al., 2001; Li, 2010; conditions: ref Zhang, 1997, Li et al., 2001, 2010; cited from earlier work
healthy volunteers = conditions: cited from earlier work
[4] = parameters: method as in Chen X. et al., 2013; conditions: clinical data; ref Chen X. et al., 2013; cited from earlier work
[5] = oral, 60 mg, multiple dosing (60 mg once daily, 7 days)/first dosing
[6] = oral, 60 mg, multiple dosing (60 mg once daily, 7 days)/last dosing
[7] = po, 30 mg, oral single dosing 30 mg
[8] = po, 60 mg, oral single dosing 60 mg
[9] = po, 120 mg, oral single dosing 120 mg

Work on CCCCC1=CCC[C@@]2(C)CC[C@@H]3C[C@]12OC3(C)C [buagafuran] yielded a Cmax [1, 5] of 0.0271 µg/mL, an AUC(0-t) [1, 5] of 0.0994 µg·h/mL and an AUC(0-inf) [1, 5] of 0.113 µg·h/mL. The MRT inf [1, 5] was 9.94 h, the Tmax ([1]; oral, 60 mg, multiple dosing (60 mg once daily, 7 days)/first dosing, read-out: Tmax Observed) was 2 h and the Cmax [1, 6] was 0.032 µg/mL. It also gave an AUC(0-t) [1, 6] of 0.163 µg·h/mL, an AUC(0-inf) [1, 6] of 0.231 µg·h/mL and an MRT inf [1, 6] of 20.9 h. For the same molecule, the Tmax ([1]; oral, 60 mg, multiple dosing (60 mg once daily, 7 days)/last dosing, read-out: Tmax Observed) was 3 h, the Cmax [1, 7] was 0.0195 µg/mL and the AUC(0-t) [1, 7] was 0.0476 µg·h/mL. It also gave an AUC(0-inf) [1, 7] of 0.0549 µg·h/mL, an MRT inf [1, 7] of 3.33 h and a Tmax ([1]; po, 30 mg, oral single dosing 30 mg, read-out: Tmax Observed) of 1 h. It also gave a Cmax [1, 8] of 0.0398 µg/mL, an AUC(0-t) [1, 8] of 0.0924 µg·h/mL and an AUC(0-inf) [1, 8] of 0.0954 µg·h/mL. For the same molecule, the MRT inf [1, 8] was 4.87 h, the Tmax ([1]; po, 60 mg, oral single dosing 60 mg, read-out: Tmax Observed) was 1 h and the Cmax [1, 9] was 0.0816 µg/mL. For the same molecule, the AUC(0-t) [1, 9] was 0.246 µg·h/mL, the AUC(0-inf) [1, 9] was 0.272 µg·h/mL and the MRT inf [1, 9] was 5.28 h. It also gave a Tmax ([1]; po, 120 mg, oral single dosing 120 mg, read-out: Tmax Observed) of 1 h, a Tmax ([1]; po, oral 30–120 mg, read-out: time to peak plasma concentration (Tmax)) of 0.5 to 2 h and a Tmax ([2]; male, Wistar, brain, read-out: time of maximum concentrations in brain) of 0.25 to 0.5 h. The “time at which brain concentrations were detected” value [2] was 5 min, the “biopharmaceutical classification system (BCS) class” value [3] was “Class II” and the “major enzymes involved in its metabolism in vitro” value (CYP3A and CYP2E) was “CYP3A and CYP2E”. The “well tolerated multiple doses” value (healthy volunteers; healthy volunteers, phase I, ref Wang et al., 2011, Chen X. et al., 2013, Yang et al.) was “up to 120 mg twice daily”, the “most common side effect” value (healthy volunteers; phase I trials, ref Zhang, 1997, Li et al., 2001) was “drowsiness” and the “urine excretion of the dose administered” value [4] was “less than 1%”.

— paper PMC5641330, “Prediction of a Therapeutic Dose for Buagafuran, a Potent Anxiolytic Agent by Physiologically Based Pharmacokinetic/Pharmacodynamic Modeling Starting from Pharmacokinetics in Rats and Human” (Frontiers in Pharmacology, 2017)
